According to US11318113B2, “Compounds for the treatment of diseases linked to mitochondrial reactive oxygen species (ROS) production” (OP2 DRUGS, priority 2015, dated 2022):

How the values were obtained:
[1] = system: other mitochondrial sites of ROS production (site IIIQO, site IF); assay: Mitochondrial ROS/H2O2 production (Amplex Red/HRP) after rotenone, antimycin A, myxothiazol; assay type: biochemical, rat; settings: AOL 5 to 80 μM
Experimental: Rates of ROS/H2O2 production from heart mitochondria were assessed through the oxidation of the colorless, non-fluorescent indicator Amplex Red in the presence of exogenous horseradish peroxidase (HRP, EC 1.11.1.7, Sigma). H2O2 reacts with Amplex Red in a 1:1 stoichiometry, yielding the fluorescent compound resorufin (excitation: 560 nm; emission: 585 nm) which is stable once formed. Fluorescence was measured continuously with a spectro-fluorometer equipped with temperature control and stirring (SAFAS Xenius, Monaco). Isolated mitochondria (0.1 mg/mL) were incubated in the same experimental buffer than previously, supplemented with 15 μM Amplex Red and 10 μg/mL HRP. Glutamate (5 mM)/malate (2.5 mM) together with succinate (5 mM) were used as complex I and complex II substrates, respectively. Experiments were conducted under non-phosphorylating conditions in the presence of 15 μM atractyloside, i.e. under state IV conditions where mitochondrial membrane […]. […]
FIG. 3 illustrates the effect of the presence of increasing concentrations of AOL (from 5 to 80 μM) on ROS/H2O2 production measured under the different conditions defined in FIG. 2. […]

[2] = system: diet-induced obese (DIO) mice; assay: Chronic ip treatment of diet-induced obese mice on high-fat diet; assay type: in vivo, mouse; settings: for AUC of blood glucose during insulin tolerance test (ITT): vehicle 12812.50±750.35
Experimental: The aim of the study was to determine whether the compound AOL, administered daily at the doses of 5 mg/kg and 10 mg/kg for up to five weeks by intraperitoneal (ip) daily administration in diet-induced obese (DIO) mice fed with a high-fat diet (HFD), modifies food intake, body weight, adiposity and glucose metabolism.
Mice were fed ad libitum with a HFD (60% of calories from fat, mostly lard) for twelve weeks before the pharmacological study begun. Animals received AOL or its vehicle by intraperitoneal (ip) administration and were maintained on HFD for the length of the study. Food intake and body weight were measured daily and recorded for up to three consecutive weeks.
Thirty 7-weeks-old male C57/B16J mice arrived to the laboratory on 25 Feb. 2016 and underwent a first in vivo body composition analysis (Echo MRI 900, EchoMRI Systems) after 1 week of adaptation to the experimental housing room. After this first MRI analysis, animals were fed a high-fat diet (HFD) ad libitum for a period of twelve weeks. Thereafter, they underwent a second MRI analysis and were distributed into 3 experimental groups of equivalent body weight and body composition.
Once the pharmacological treatment started (day 1), food intake (FI) and body weight (BW) were measured daily before the dark phase in animals housed in their home cage. Spillage of food was checked daily. The food consumed was calculated by subtracting the food left in the hoppers from the initial pre-weighted amount. FI and BW were measured for three consecutive weeks. Afterwards animals underwent a third MRI analysis in order to observe potential effects of the treatment onto the body composition (changes in fat and lean mass), followed by a glucose tolerance test (GTT) and an insulin tolerance test (ITT). Mice received daily ip administration of AOL or its vehicle for a total length of five weeks, until they were sacrificed.
A nuclear echo magnetic resonance imaging whole-body composition analyzer (Echo MRI 900; EchoMedical Systems) was used to repeatedly assess body fat and lean mass in conscious mice.
Animals were injected ip with 1.5 g/kg of D-Glucose (Sigma-Aldrich) for the GTT or with 0.5 U/kg of insulin (Humulin, Lilly, France) for the ITT. For the GTT and the ITT, animals were fasted overnight. The tests were conducted the following morning. Blood samples were taken from the tail vein at different time points (0, 15, 30, 60, 90 and 120 minutes after the ip administration of glucose or insulin) and glucose concentration was measured using glucose sticks (OneTouch Vita, Lifescan France, Issy les Moulineaux, France).
At sacrifice, blood samples were collected, blood glucose was rapidly assessed using glucose sticks and blood samples were then centrifuged at 3000 rpm for 15 minutes. The obtained plasma was stored at −80° C. for subsequent measurement of insulin, which was carried out by performing an ELISA (kit from Mercodia, Uppsala, Sweden), according to the manufacturer's instructions.

In the case of `COc1ccc(-c2cc(=S)ss2)cc1` [AOL, 5-(4-methoxyphenyl)-3H-1,2-dithiole-3-thione], the “ROS/H2O2 production under the other conditions” value [1] was “no statistical differences were observed”, the blood glucose levels ([2]; 2-hour fasted mice, after five weeks of treatment) was “tended to decrease” and the “body weight and % change of body weight” value ([2]; 5 and 10 mg/kg ip daily) was “did not have a significant effect”. The “AUC of blood glucose during insulin tolerance test (ITT)” value ([2]; AOL 5 mg/kg) was 15006.56±1139.69, the “action of insulin on circulating glucose levels during an ITT” value ([2]; AOL 10 mg/kg) was “significantly blunted” and the “AUC of blood glucose during insulin tolerance test (ITT)” value ([2]; AOL 10 mg/kg, p=0.0107 vs vehicle) was 18168.33±1562.90. The lean mass ([2]; after three weeks, 5 and 10 mg/kg ip daily) was “did not have any effect”, the fat mass ([2]; after three weeks, 5 and 10 mg/kg ip daily, p=0.13) was “tended to reduce” and the “body weight and food intake” value ([2]; chronic daily administration, data not shown) was “tended to decrease”.
